The target in series [1] is T1, Dld (Cg1027), quinone-dependent D-lactate dehydrogenase (Corynebacterium glutamicum, UniProt Q8NRY8).
T1 construct: PCR fragment printed as 1,020 bp but gene coordinates 955683-957398 imply 571 residues; reverse primer dld2 lacks stop codon; abstract also misprints Cg1067
T1 sequence (Q8NRY8 1-571): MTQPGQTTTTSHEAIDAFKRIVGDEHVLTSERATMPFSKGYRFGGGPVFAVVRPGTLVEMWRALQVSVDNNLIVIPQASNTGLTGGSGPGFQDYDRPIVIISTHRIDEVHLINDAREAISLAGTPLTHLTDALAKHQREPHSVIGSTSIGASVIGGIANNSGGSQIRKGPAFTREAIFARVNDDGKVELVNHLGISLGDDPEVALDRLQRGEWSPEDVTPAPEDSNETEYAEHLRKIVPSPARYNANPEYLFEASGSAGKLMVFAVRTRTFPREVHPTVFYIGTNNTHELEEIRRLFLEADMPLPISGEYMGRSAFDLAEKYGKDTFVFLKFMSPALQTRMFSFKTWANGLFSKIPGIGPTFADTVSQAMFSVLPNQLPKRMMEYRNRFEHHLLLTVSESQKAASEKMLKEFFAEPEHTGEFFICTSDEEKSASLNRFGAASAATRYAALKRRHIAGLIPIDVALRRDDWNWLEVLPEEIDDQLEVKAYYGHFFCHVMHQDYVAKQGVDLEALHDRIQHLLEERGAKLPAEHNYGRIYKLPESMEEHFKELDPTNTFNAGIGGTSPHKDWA
Kind of series: absorption spectrum of purified protein ([…] and […] nm). It is filed as binding. To be noted: bound cofactor, co-purified; non-covalent; identified from spectrum and FAD domain.

Substrate in the series “purified protein”: C[C@@H](O)C(=O)O
As to the kind of experiment: purified protein. The conditions noted are these: 2,6-dichloroindophenol as electron acceptor, 30 °C, potassium phosphate, pH optimum 7.0, Discussion prints 0.62 mM.

Turning to `Cc1cc2nc3c(=O)[nH]c(=O)nc-3n(C[C@H](O)[C@H](O)[C@H](O)COP(=O)(O)OP(=O)(O)OC[C@H]3O[C@@H](n4cnc5c(N)ncnc54)[C@H](O)[C@@H]3O)c2cc1C` [FAD], in series [1], the “absorption spectrum of purified protein (375 and 445 nm)” value was “These results suggest that D-lactate dehydrogenase from C. glutamicum contains FAD as a bound cofactor”.

B1: Dld (Cg1027), quinone-dependent D-lactate dehydrogenase (Corynebacterium glutamicum ATCC 13032) (protein)
chain: MTQPGQTTTTSHEAIDAFKRIVGDEHVLTSERATMPFSKGYRFGGGPVFAVVRPGTLVEMWRALQVSVDNNLIVIPQASNTGLTGGSGPGFQDYDRPIVIISTHRIDEVHLINDAREAISLAGTPLTHLTDALAKHQREPHSVIGSTSIGASVIGGIANNSGGSQIRKGPAFTREAIFARVNDDGKVELVNHLGISLGDDPEVALDRLQRGEWSPEDVTPAPEDSNETEYAEHLRKIVPSPARYNANPEYLFEASGSAGKLMVFAVRTRTFPREVHPTVFYIGTNNTHELEEIRRLFLEADMPLPISGEYMGRSAFDLAEKYGKDTFVFLKFMSPALQTRMFSFKTWANGLFSKIPGIGPTFADTVSQAMFSVLPNQLPKRMMEYRNRFEHHLLLTVSESQKAASEKMLKEFFAEPEHTGEFFICTSDEEKSASLNRFGAASAATRYAALKRRHIAGLIPIDVALRRDDWNWLEVLPEEIDDQLEVKAYYGHFFCHVMHQDYVAKQGVDLEALHDRIQHLLEERGAKLPAEHNYGRIYKLPESMEEHFKELDPTNTFNAGIGGTSPHKDWA
As a reminder, the Km is the concentration of substrate that gives half-maximal velocity. As to B1, in the series “purified protein”, the Km came out at 610 µM.

Values taken from paper PMC3022706 (BMC Microbiology, 2010).
